For experiment [1], the system named is substance-P induced relaxation of the pig coronary arteries. Kind of experiment: Antagonism of substance-P induced relaxation of the pig coronary arteries. The following applies: concentration at which 50% of the response to 10^−9 M substance P was inhibited, 30 minutes incubation, prostaglandin F2a precontracted segments. It counts as cell-based. An excerpt:
(§1) The compounds of the present invention are potent inhibitors of neurokinin-mediated effects, in particular those mediated via the NK1 receptor, and may therefore be described as tachykinin antagonists, especially as substance P antagonists, as indicated in vitro by the antagonism of substance P induced relaxation of pig coronary arteries which is described hereinafter. The binding affinity of the present compounds for the human, guinea-pig and gerbil neurokinin receptors may be determined in vitro in a receptor binding test using ^3H-substance-P as radioligand. The subject compounds also show substance-P antagonistic activity in vivo as may be evidenced by, for instance, the antagonism of substance P-induced plasma extravasation in guinea-pigs, or the antagonism of drug-induced emesis in ferrets (Watson et al., Br. J. Pharmacol. 115, 84-94, 1995).
Antagonism of substance-P induced relaxation of the pig coronary arteries
Segments of coronary artieries taken from pigs (killed by injection of an overdose of sodium pentobarbital) were inverted and mounted for recordign of isometric tension in organ baths (volume 20 ml) with the endothelium at the outside. The preparations were bathed in Krebs-Henseleit solution. The solution was kept at 37° C. and gassed with a mixture of O2/CO2 (95/5). After stabilisation of the preparations, prostaglandin F2a (10^−5 M) was administered to induce a contraction. This was repeated until contractivle responses became stable. Then prostaglandin F2a was again administered and substance P(3×10^−10 M and 10^−9 M cumulatively) was added. Substance P induced endothelium dependent relaxations. After washing away the agonists, a known concentratin of a compound of formula (I) was added. After an incubation period of 30 minutes, prostaglandin F2a ([…]) and the same concentrations of sbustance P as described above were again administered in the presence of the compound to be tested. Relaxations caused by substance P were expressed as relaxations under control conditions, and percent inhibition of the response to […] substance P was taken as a measure of the antagonistic activity of the compound to be tested. Table 6 lists the IC50 values (concentration at which 50% of the response to […] substance P was inhibited by the test compound) for the tested compounds.

Experiment [2] has as its system substance P induced plasma extravasation. The experiment in a line: Antagonism of substance P induced plasma extravasation in guinea-pigs. The note with it: lowest active dose, female guinea-pigs; for LAD nose: compound 1 hour prior to substance P (2 mg/kg, femoral artery), blue colouring of nose 10 minutes after challenge; for LAD conjunctiva / LAD forepaws / LAD trachea / LAD urinary bladder: compound 1 hour prior to substance P; for LAD conjunctiva: blue colouring of conjunctiva 10 minutes after challenge; for LAD forepaws: blue colouring of forepaws 10 minutes after challenge; for LAD trachea: blue colouring of trachea 30 minutes after challenge; for LAD urinary bladder: blue colouring of urinary bladder 30 minutes after challenge. The experiment is classed as in vivo.
Source text: as §1
Antagonism of substance P induced plasma extravasation in guinea-pigs
Plasma extravasation was induced by injection of substance P (2 mg/kg) in the femoral artery of female guinea-pigs. Evans Blue dye (30 mg/kg) was injected simultaneously. The test compound or solvent was administered 1 hour prior to substance P injection. 10 minutes after challenge, the aminals were checked for blue colouring (a direct measure for plasma extravasation) of the nose, the forepaws, and the conjectiva. 30 minutes after challenge, the animals were sacrificed by CO2 gas inhalation and checked for blue colouring of the trachea and the urinary bladder. […]

SMILES strings stand for the structures.

What is called IC50 is the concentration needed to halve the response being measured. `Cc1cccc(C)c1NC(=O)CN1CCN([C@@H]2CCN(C(=O)c3cc(C(F)(F)F)cc(C(F)(F)F)c3)[C@@H](Cc3ccccc3)C2)CC1.O=C(O)C[C@H](O)C(=O)O` (relative stereo) [Compound 95, (+)-(B)-trans-4-[1-[3,5-bis(trifluoromethyl)benzoyl]-2-(phenylmethyl)-4-piperidinyl]-N-(2,6-dimethylphenyl)-1-piperazine acetamide. (L)-malic acid (1:1)]: the 50% inhibitory concentration (IC50) in experiment [1] was found to be 0.1 nM. In experiment [2], this compound displayed an LAD nose of 0.31 mg/kg, an LAD conjunctiva of 0.31 mg/kg, an LAD forepaws of 0.31 mg/kg and an LAD trachea of 0.63 mg/kg. The compound further showed an LAD urinary bladder in experiment [2] of 2.50 mg/kg.

Compound `Cc1cccc(C)c1NC(=O)CCN1CCN(C2CCN(C(=O)c3cc(C(F)(F)F)cc(C(F)(F)F)c3)C(Cc3ccccc3)C2)CC1` (racemic) [Compound 105] came in with an IC50 in experiment [1] of 1.05 nM. Besides, in experiment [2], the LAD nose was determined as 2.50 mg/kg, the LAD conjunctiva is 2.50 mg/kg, the LAD forepaws amounted to 2.50 mg/kg and the LAD trachea is recorded as >40 mg/kg. Also, the LAD urinary bladder in experiment [2] is >40 mg/kg.

For the compound `Cc1ncc(Cn2c(N3CCN([C@H]4CCN(C(=O)c5cc(C(F)(F)F)cc(C(F)(F)F)c5)[C@@H](Cc5ccccc5)C4)CC3)nc3ccccc32)o1` (racemic) [Compound 70, (±)-cis-1-[3,5-bis(trifluoromethyl)benzoyl]-4-[4-[1-[(2-methyl-5-oxazolyl)methyl]-1H-benzimidazol-2-yl]-1-piperazinyl]-2-(phenylmethyl)piperidine], the IC50 in experiment [1] (Sus scrofa, 0.5 h) stood at 0.29 nM. In experiment [2], this compound returned an LAD nose of 10.0 mg/kg, an LAD conjunctiva of 10.0 mg/kg, an LAD forepaws of 10.0 mg/kg and an LAD trachea of 10.0 mg/kg. The same compound showed an LAD urinary bladder in experiment [2] of 10.0 mg/kg.

As to `Cc1ncc(Cn2c(N3CCN(C4CCN(C(=O)c5cc(C(F)(F)F)cc(C(F)(F)F)c5)C(Cc5ccccc5)C4)CC3)nc3ccccc32)o1` (racemic) [Compound 85], in experiment [1], the IC50 stood at 0.15 nM. Besides, in experiment [2], the LAD nose worked out at 2.50 mg/kg, the LAD conjunctiva is given as 2.50 mg/kg, the LAD forepaws is listed as 2.50 mg/kg and the LAD trachea is on record as 2.50 mg/kg. The compound also came in with an LAD urinary bladder in experiment [2] of 10.0 mg/kg.

`Cc1ncc(Cn2c(N3CCN(C4CCN(C(=O)c5cc(C(F)(F)F)cc(C(F)(F)F)c5)C(Cc5ccccc5)C4)CC3)nc3ccccc32)o1` (stereo not shown) [Compound 24] came in with an IC50 in experiment [1] of 0.64 nM. In experiment [2], this compound had an LAD nose of 2.50 mg/kg, an LAD conjunctiva of 10.0 mg/kg, an LAD forepaws of 2.50 mg/kg and an LAD trachea of 10.0 mg/kg. For the same compound, the LAD urinary bladder in experiment [2] is on record as >40 mg/kg.

Consider `Cc1cccc(C)c1NC(=O)CN1CCN(C2CCN(C(=O)c3cc(C(F)(F)F)cc(C(F)(F)F)c3)C(Cc3ccccc3)C2)CC1` (racemic) [Compound 59], for which, in experiment [1], it took 1.2 nM to reach half-maximal inhibition (IC50). In experiment [2], this compound gave an LAD nose of 2.50 mg/kg, an LAD conjunctiva of 2.50 mg/kg, an LAD forepaws of 2.50 mg/kg and an LAD trachea of 5.00 mg/kg. In experiment [2], this compound gave an LAD urinary bladder of 5.00 mg/kg.

In experiment [1], `Cc1cc(C)cc(NC(=O)CN2CCN(C3CCN(C(=O)c4cc(C(F)(F)F)cc(C(F)(F)F)c4)C(Cc4ccccc4)C3)CC2)c1` (stereo not shown) [Compound 50] came in with an IC50 of 2.43 nM. In experiment [2], this compound had an LAD nose of 10.0 mg/kg, an LAD conjunctiva of 10.0 mg/kg, an LAD forepaws of 10.0 mg/kg and an LAD trachea of 10.0 mg/kg. For the same compound, the LAD urinary bladder in experiment [2] was >40 mg/kg.

In experiment [1], `O=C(c1cc(C(F)(F)F)cc(C(F)(F)F)c1)N1CCC(N2CCN(CCn3c(=O)[nH]c4ccccc43)CC2)CC1Cc1ccccc1` (stereo not shown) [Compound 19] displayed an IC50 of 0.54 nM. In experiment [2], this compound registered an LAD nose of 2.50 mg/kg, an LAD conjunctiva of 2.50 mg/kg, an LAD forepaws of 2.50 mg/kg and an LAD trachea of 10.0 mg/kg. In addition, the LAD urinary bladder in experiment [2] is >40 mg/kg.

`O=C(CN1CCN(C2CCN(C(=O)c3cc(C(F)(F)F)cc(C(F)(F)F)c3)C(Cc3ccccc3)C2)CC1)NC1(c2ccccc2)CCCCC1` (stereo not shown) [Compound 48] returned an IC50 in experiment [1] of 0.26 nM. In experiment [2], this compound returned an LAD nose of 2.50 mg/kg, an LAD conjunctiva of 2.50 mg/kg, an LAD forepaws of 2.50 mg/kg and an LAD trachea of 2.50 mg/kg. The LAD urinary bladder in experiment [2] amounted to 2.50 mg/kg.

Compound `COc1ccccc1NC(=O)CN1CCN(C2CCN(C(=O)c3cc(C(F)(F)F)cc(C(F)(F)F)c3)C(Cc3ccccc3)C2)CC1` (stereo not shown) [Compound 38] gave an IC50 in experiment [1] of 0.86 nM. In experiment [2], the LAD nose is on record as 10.0 mg/kg, the LAD conjunctiva came out at 10.0 mg/kg, the LAD forepaws is recorded as 10.0 mg/kg and the LAD trachea is on record as >40 mg/kg. The LAD urinary bladder in experiment [2] was >40 mg/kg.

`O=C(O)C=CC(=O)O.O=C(O)C=CC(=O)O.O=C(c1cc(C(F)(F)F)cc(C(F)(F)F)c1)N1CCC(N2CCCN(Cc3ccccc3)CC2)CC1Cc1ccccc1` (racemic) [Compound 68] yielded a concentration for half-maximal inhibition (IC50) in experiment [1] of 5.88 nM. In experiment [2], the LAD nose is listed as 10.0 mg/kg, the LAD conjunctiva was 40.0 mg/kg, the LAD forepaws turned out to be 10.0 mg/kg and the LAD trachea was >40 mg/kg. Also, the LAD urinary bladder in experiment [2] was >40 mg/kg.

With `CCOCCn1c(NC(=O)CN2CCN(C3CCN(C(=O)c4cc(C(F)(F)F)cc(C(F)(F)F)c4)C(Cc4ccccc4)C3)CC2)nc2ccccc21` (racemic) [Compound 69], it took 1.57 nM to reach half-maximal inhibition in experiment [1] (IC50).

Turning to `O=C(CN1CCN(C2CCN(C(=O)c3cc(C(F)(F)F)cc(C(F)(F)F)c3)C(Cc3ccccc3)C2)CC1)C1CCc2ccccc21` (racemic) [Compound 99], the IC50 in experiment [1] stood at 1.46 nM.

As for `O=C(c1cc(C(F)(F)F)cc(C(F)(F)F)c1)N1CCC(N2CCN(c3cccc(C(F)(F)F)c3)CC2)CC1Cc1ccccc1` (racemic) [Compound 120], 0.82 nM corresponded to half-maximal inhibition in experiment [1] (IC50).

For the compound `CN(CC(CCN1CCN([C@H]2CCN(C(=O)c3cc(C(F)(F)F)cc(C(F)(F)F)c3)[C@@H](Cc3ccccc3)C2)CC1)c1ccc(Cl)c(Cl)c1)C(=O)c1ccccc1` (mixture of isomers) [Compound 93, (±)-cis-N-[4-[4-[1-[3,5-bis(trifluoromethyl)benzoyl]-2-(phenylmethyl)-4-piperidinyl]-1-piperazinyl]-2-(3,4-dichlorophenyl)butyl]-N-Methylbenzamide (E)-2-butenedioate (1:2)], the IC50 in experiment [1] (Sus scrofa, 0.5 h) came out at 4.99 nM.

`Cc1cc(C)cc(C(=O)NCCN2CCN(C3CCN(C(=O)c4cc(C(F)(F)F)cc(C(F)(F)F)c4)C(Cc4ccccc4)C3)CC2)c1` (racemic) [Compound 115]: half-maximal inhibition in experiment [1] (IC50) was put at 2.23 nM.

In experiment [1], `O=C(c1cc(C(F)(F)F)cc(C(F)(F)F)c1)N1CCC(N2CCN(CC=Cc3ccccc3)CC2)CC1Cc1ccccc1` (stereo not shown) [Compound 28] yielded an IC50 of 13.3 nM.

The compound `Cc1cccc2c1N(C(=O)CN1CCN(C3CCN(C(=O)c4cc(C(F)(F)F)cc(C(F)(F)F)c4)C(Cc4ccccc4)C3)CC1)CC2` (racemic) [Compound 104] displayed an IC50 in experiment [1] of 0.3 nM.

Consider `Cc1cccc(C)c1NC(=O)CN1CCN(C2CCN(C(=O)c3cc(C(F)(F)F)cc(C(F)(F)F)c3)C(Cc3ccccc3)C2)CC1` (single isomer, unassigned) [Compound 124], for which it took 0.06 nM to reach half-maximal inhibition in experiment [1] (IC50).

In experiment [1], `Cc1cc(C)cc(C(=O)N2CCC(N3CCN(CC(=O)Nc4c(C)cccc4C)CC3)CC2Cc2ccccc2)c1` (stereo not shown) [Compound 5] returned an IC50 of 4.61 nM.

Regarding `CC(C)NC(=O)CN1CCN(C2CCN(C(=O)c3cc(C(F)(F)F)cc(C(F)(F)F)c3)C(Cc3ccccc3)C2)CC1` (racemic) [Compound 76], in experiment [1], the IC50 stood at 14.1 nM.

The record behind these values is patent USRE37886E1, “1-(1,2-Disubstituted piperidinyl)-4-substituted piperazine derivatives” (Janssen Pharmaceuticals, N.V., priority 1995, dated 2002).
